Drawing on patent publication US8772283B2, “Imidazo-oxazine compound or salt thereof” (Taiho Pharmaceutical Co., Ltd., priority 2011, dated 2014), this text covers IC50 for nine molecules.

The target of one test is human AKT2 (Homo sapiens (Human), UniProt P31751). Put plainly: AKT2 kinase activity inhibition (TR-FRET, biotinylated Crosstide substrate). The conditions noted are these: preincubation 120 min at 25° C.; ATP 150 μM; Crosstide 500 nM. It counts as biochemical. The essentials: (§1)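 Middle-T-tagged human AKT1 or AKT2, Sf9-expressed, affinity-purified and PDK1-activated, was preincubated 120 min at 25 °C with compound in 15 mM Tris-HCl pH 7.5, 0.01% Tween-20, 2 mM DTT. Kinase reaction then ran 60 min with 500 nM biotin-Crosstide, 10 mM MgCl2 and 150 μM ATP before EDTA stop. IC50 came from the Eu/APC TR-FRET 665/620 nm ratio.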
On the technique in general: In TR-FRET formats the signal depends on donor and acceptor labels being close together.

The subject of test [1] is AKT Ser473 phosphorylation. Put plainly: Phosphorylated AKT (Ser473) inhibitory activity in cultured cell A2780 (Meso Scale Discovery assay). It counts as cell-based. As to conditions: A2780 cells, 3 hours treatment; average±standard deviation of three independent runs. The procedure:
(§2) To evaluate the inhibitory activity of the above compounds against AKT activity, AKT Ser 473 phosphorylation and phosphorylation of S6 ribosomal protein (S6RP) (a downstream factor of Akt signal) at Ser240/Ser244, which serve as indices for the activation status of AKT, were measured in extracts of cultured cells which had been treated with the above compounds. For the measurement, assays (manufactured by Meso Scale Discovery) utilizing electrochemiluminescence based on the ELISA principle were used for both AKT Ser473 and S6RP Ser240/Ser244.
(§3) In 10% FBS-containing RPMI1640 medium (Invitrogen), ovarian cancer-derived A2780 cells in the logarithmic growth phase were seeded at 4.5×10^4 cells/150 μL/well into polylysine coated 96-well flat-bottom plates, and cultured for one day in an incubator at 5% CO2, 37° C., and 100% humidity.
(§4) Each compound of the present invention was supplied as a stock solution prepared at a concentration of 10 mM in DMSO. Using this solution, a dilution series was prepared in DMSO solvent at 200-fold of the final concentrations (10, 3, 1, 0.3, 0.1, 0.03, 0.01, 0.003 μM). The day after the cells were seeded, the compound dilution series at a 200-fold concentration was diluted 50-fold in medium for cell culture. To each well of the aforementioned A2780 cell culture plates, 50 μL of the diluted compound dilution series was added. The plates were then placed back in the incubator, and the culture was continued for 3 hours at 5% CO2, 37° C., and 100% humidity.
(§5) Meso Scale Discovery's 96-Well Multi-Spot Phospho-AKT (Ser473) Assay (K151CAA-3) and Phospho (Ser240/244)/Total S6RP Assay (K11139D-2) were used. In advance, a necessary amount of the supplied cell extract buffer was dispensed, and protease inhibitor cocktail and protein phosphatase inhibitor cocktail were added thereto, and kept cold on ice. The culture plates of the cells cultured with the compounds for 3 hours were taken out and the medium was removed. 100 μL of the cell extract buffer kept cold was added per well, followed by extraction by shaking at 300 r.p.m. for 1 hour using a plate shaker while maintaining a temperature of 4° C. Using the obtained extracts at 40 μL/well for the Phospho-AKT (Ser473) Assay and at 15 μL/well for the Phospho(Ser240/244)/Total S6RP Assay, reactions were conducted at 4° C. overnight with shaking at 300 r.p.m. according to the document attached to the kits. The next day, after the wells were washed three times with the supplied wash buffer, 50 μL/well of SULFO-TAG™ sandwich antibody solution was added, and reactions were carried out at room temperature for 1 hour. The wells were washed with the wash buffer three times, and 150 μL of the supplied Read Buffer T was added to each well. The amounts of phosphorylation of AKT and S6RP were measured by a SECTOR Imager 6000 plate reader (manufactured by Meso Scale Discovery) within 30 minutes of the Read Buffer T addition.
(§6) The extraction buffer-only background was subtracted from all of the measurement values, and AKT and S6RP phosphorylation signals in the control cell extract treated with only DMSO were defined as 100%. The compound concentrations and the levels of phosphorylated AKT and S6PR (expressed as a percentage relative to the control) in each concentration were plotted, and IC50 concentration (nM) that achieves 50% inhibition of the control was determined.

The target of another test is human AKT1 (Homo sapiens (Human), UniProt P31749). The test is described as follows: AKT1 kinase activity inhibition (TR-FRET, biotinylated Crosstide substrate). It counts as biochemical. As to conditions: preincubation 120 min at 25° C.; ATP 150 μM; Crosstide 500 nM. Summed up: as §1
The subject of test [2] is S6 ribosomal protein (S6RP) Ser240/Ser244 phosphorylation. Put plainly: Phosphorylated S6RP (Ser240/Ser244) inhibitory activity in cultured cell A2780 (Meso Scale Discovery assay). As to conditions: A2780 cells, 3 hours treatment; average±standard deviation of three independent runs. It counts as cell-based. As to the method:
as §2, §3, §4, §5, §6

human AKT2, sequence (P31751 whole entry): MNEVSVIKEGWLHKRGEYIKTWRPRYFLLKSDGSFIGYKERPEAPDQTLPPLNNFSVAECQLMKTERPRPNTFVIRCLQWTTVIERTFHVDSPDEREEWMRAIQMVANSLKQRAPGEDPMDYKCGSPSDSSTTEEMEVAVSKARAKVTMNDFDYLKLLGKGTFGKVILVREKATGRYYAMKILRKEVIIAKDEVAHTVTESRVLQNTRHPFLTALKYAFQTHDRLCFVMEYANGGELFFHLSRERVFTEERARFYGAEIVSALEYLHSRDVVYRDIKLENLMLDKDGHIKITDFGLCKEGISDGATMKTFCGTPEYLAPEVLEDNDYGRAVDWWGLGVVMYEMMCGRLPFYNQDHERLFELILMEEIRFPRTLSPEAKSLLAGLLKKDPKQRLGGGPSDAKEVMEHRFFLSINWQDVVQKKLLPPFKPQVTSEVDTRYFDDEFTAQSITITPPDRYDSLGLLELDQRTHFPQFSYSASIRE
human AKT1, sequence (P31749 whole entry): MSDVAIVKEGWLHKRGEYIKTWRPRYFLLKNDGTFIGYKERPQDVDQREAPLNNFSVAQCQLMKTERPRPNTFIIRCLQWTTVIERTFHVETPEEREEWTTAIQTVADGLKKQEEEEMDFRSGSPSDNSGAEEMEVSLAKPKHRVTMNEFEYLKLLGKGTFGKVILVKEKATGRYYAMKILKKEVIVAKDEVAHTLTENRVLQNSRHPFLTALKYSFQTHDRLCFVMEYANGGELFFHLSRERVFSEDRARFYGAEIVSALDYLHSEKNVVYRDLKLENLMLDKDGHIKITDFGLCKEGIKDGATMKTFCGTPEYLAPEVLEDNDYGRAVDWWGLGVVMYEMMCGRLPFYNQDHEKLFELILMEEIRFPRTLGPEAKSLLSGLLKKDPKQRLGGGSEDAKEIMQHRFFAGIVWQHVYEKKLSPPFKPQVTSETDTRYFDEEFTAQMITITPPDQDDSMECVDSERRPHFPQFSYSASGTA

The IC50 is the concentration that gives 50% inhibition. Low values mean greater potency, high ones weaker potency. For the molecule `NC1(c2ccc(-c3nc4n(c3-c3ccccc3)COc3nccnc3-4)cc2)CC(O)(C2CC2)C1` (stereo not drawn) [Example 41, trans-3-amino-1-cyclopropyl-3-(4-(3-phenyl-5H-imidazo[1,2-c]pyrazino[2,3-e][1,3]oxazin-2-yl)phenyl)cyclobutanol], the IC50 against human AKT2 amounted to 3.3 nM; in test [1], 70 ± 16 nM; on human AKT1, 5.4 nM; in test [2], 100 ± 34 nM.
In the case of `N[C@]1(c2ccc(-c3nc4n(c3-c3ccccc3)COc3cnccc3-4)cc2)C[C@](O)(C2CC2)C1` [Example 35, trans-3-amino-1-cyclopropyl-3-(4-(3-phenyl-5H-imidazo[1,2-c]pyrido[4,3-e][1,3]oxazin-2-yl)phenyl)cyclobutanol], the IC50 is 0.48 nM against human AKT2, 24 ± 3 nM in test [1], 1.6 nM at human AKT1 and 33 ± 8 nM in test [2].
On the same counts, the results for `C[C@]1(O)C[C@@](N)(c2ccc(-c3nc4n(c3-c3ccccc3)COc3cccnc3-4)cc2)C1` [Example 28, trans-3-amino-1-methyl-3-(4-(3-phenyl-5H-imidazo[1,2-c]pyrido[2,3-e][1,3]oxazin-2-yl)phenyl)cyclobutanol] are 2 nM, 81 ± 9 nM, 11 nM and 131 ± 28 nM.
For `C[C@]1(O)C[C@@](N)(c2ccc(-c3nc4n(c3-c3ccccc3)COc3cnccc3-4)cc2)C1` [Example 36, trans-3-amino-1-methyl-3-(4-(3-phenyl-5H-imidazo[1,2-c]pyrido[4,3-e][1,3]oxazin-2-yl)phenyl)cyclobutanol], the IC50 at human AKT2 amounted to 0.74 nM; in test [1] it was 32 ± 6 nM; against human AKT1, 2 nM; in test [2] it was 36 ± 3 nM.
As for `N[C@]1(c2ccc(-c3nc4n(c3-c3ccccc3)COc3ncccc3-4)cc2)C[C@](O)(C2CC2)C1` [Example 38, trans-3-amino-1-cyclopropyl-3-(4-(3-phenyl-5H-imidazo[1,2-c]pyrido[3,2-e][1,3]oxazin-2-yl)phenyl)cyclobutanol], the half-maximal inhibitory concentration (IC50) came out at 0.91 nM against human AKT2, 23 ± 4 nM in test [1], 1.4 nM at human AKT1 and 34 ± 6 nM in test [2].
The matching figures for `COc1ccc2c(c1)-c1nc(-c3ccc([C@]4(N)C[C@@](O)(C5CC5)C4)cc3)c(-c3ccccc3)n1CO2` [Example 17, trans-3-amino-1-cyclopropyl-3-(4-(9-methoxy-3-phenyl-5H-benzo[e]imidazo[1,2-c][1,3]oxazin-2-yl)phenyl)cyclobutanol]: 5.1 nM, 33 ± 6 nM, 1.8 nM and 37 ± 7 nM.
On the same counts, the results for `CCONC(=O)c1ccc2c(c1)OCn1c-2nc(-c2ccc([C@]3(N)C[C@](C)(O)C3)cc2)c1-c1ccccc1` [Example 59, 2-(4-(trans-1-amino-3-hydroxy-3-methylcyclobutyl)phenyl)-N-ethoxy-3-phenyl-5H-benzo[e]imidazo[1,2-c][1,3]oxazine-8-carboxamide] are 0.53 nM, 26 ± 3 nM, 2.1 nM and 42 ± 14 nM.
In the case of `N[C@]1(c2ccc(-c3nc4n(c3-c3ccccc3)COc3cccnc3-4)cc2)C[C@](O)(C2CC2)C1` [Example 27, trans-3-amino-1-cyclopropyl-3-(4-(3-phenyl-5H-imidazo[1,2-c]pyrido[2,3-e][1,3]oxazin-2-yl)phenyl)cyclobutanol], the half-inhibitory concentration (IC50) against human AKT2 turned out to be 1.6 nM; in test [1], 66 ± 10 nM; against human AKT1, 11 nM; in test [2], 100 ± 17 nM.
Regarding `N[C@]1(c2ccc(-c3nc4n(c3-c3ccccc3)COc3ccncc3-4)cc2)C[C@](O)(C2CC2)C1` [Example 31, trans-3-amino-1-cyclopropyl-3-(4-(3-phenyl-5H-imidazo[1,2-c]pyrido[3,4-e][1,3]oxazin-2-yl)phenyl)cyclobutanol], the concentration for half-maximal inhibition (IC50) against human AKT2 is 0.78 nM; in test [1] it was 30 ± 5 nM; on human AKT1 it was 4.2 nM; in test [2], 51 ± 7 nM.
